Test system: SW 982 tumor spheroid viability
Experiment: Anticancer human tumor SW 982 cell line growth inhibition;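 also: spheroids exposed to compound for 7 days before readout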
Settings: spheroids with HUVEC and MSC; for IC50: curve of first compound; for viability, T/C: stronger effect = lower value
How it was run: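 Complex spheroids of malignant cells with endothelial cells and mesenchymal stem cells; agents alone or combined, from near clinical Cmax (or 10 microM if unknown) down in half-log steps, 0.25% DMSO final.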

Cn1ncnc1[C@H]1c2n[nH]c(=O)c3cc(F)cc(c23)N[C@@H]1c1ccc(F)cc1 + COc1cc2c(cc1O)CCNC21CSC2c3c(OC(C)=O)c(C)c4c(c3C(COC1=O)N1C(O)C3Cc5cc(C)c(OC)c(O)c5C(C21)N3C)OCO4
IC50 (second compound 30 pM): > 3000 nM
IC50 (second compound 94.9 pM): 2740 nM
IC50 (second compound 0.0003 µM): 1830 nM
IC50 (second compound 0.000949 µM): < 9.49 nM
IC50 (second compound 0.003 µM): < 9.49 nM
viability, T/C (second compound 30 pM, first compound 0.00949 µM): 93.6%
viability, T/C (second compound 30 pM, first compound 0.03 µM): 89.1%
viability, T/C (second compound 30 pM, first compound 0.0949 µM): 85.9%
viability, T/C (second compound 30 pM, first compound 0.3 µM): 85%
viability, T/C (second compound 30 pM, first compound 0.949 µM): 76.3%
viability, T/C (second compound 30 pM, first compound 3 µM): 52.6%
viability, T/C (second compound 94.9 pM, first compound 0.00949 µM): 80.7%
viability, T/C (second compound 94.9 pM, first compound 0.03 µM): 85.3%
viability, T/C (second compound 94.9 pM, first compound 0.0949 µM): 82%
viability, T/C (second compound 94.9 pM, first compound 0.3 µM): 82%
viability, T/C (second compound 94.9 pM, first compound 0.949 µM): 66.3%
viability, T/C (second compound 94.9 pM, first compound 3 µM): 48.6%
viability, T/C (second compound 0.0003 µM, first compound 0.00949 µM): 76%
viability, T/C (second compound 0.0003 µM, first compound 0.03 µM): 73.5%
viability, T/C (second compound 0.0003 µM, first compound 0.0949 µM): 70%
viability, T/C (second compound 0.0003 µM, first compound 0.3 µM): 76.1%
viability, T/C (second compound 0.0003 µM, first compound 0.949 µM): 54.6%
viability, T/C (second compound 0.0003 µM, first compound 3 µM): 46.6%
viability, T/C (second compound 0.000949 µM, first compound 0.00949 µM): 32.3%
viability, T/C (second compound 0.000949 µM, first compound 0.03 µM): 28.7%
viability, T/C (second compound 0.000949 µM, first compound 0.0949 µM): 25.2%
viability, T/C (second compound 0.000949 µM, first compound 0.3 µM): 27%
viability, T/C (second compound 0.000949 µM, first compound 0.949 µM): 14.8%
viability, T/C (second compound 0.000949 µM, first compound 3 µM): 2.84%
viability, T/C (second compound 0.003 µM, first compound 0.00949 µM): 0.32%
viability, T/C (second compound 0.003 µM, first compound 0.03 µM): 0.45%
viability, T/C (second compound 0.003 µM, first compound 0.0949 µM): 0.37%
viability, T/C (second compound 0.003 µM, first compound 0.3 µM): 0.38%
viability, T/C (second compound 0.003 µM, first compound 0.949 µM): 0.36%
viability, T/C (second compound 0.003 µM, first compound 3 µM): 0.91%
